Assay results as given in patent US20130331347A1, “Treatment of Clostridium Difficile Infection in Patients Undergoing Antibiotic Therapy” (Optimer Pharmaceuticals, Inc., priority 2010, published 2013).

System: Clostridium difficile infection (CDI)
Assay: Concomitant antibiotics (CAs) during CDI treatment: PO fidaxomicin vs PO vancomycin, clinical outcome review
Type: in vivo, human
Settings: for Global Cure (clinical cure with no recurrence) / Clinical Cure / Recurrence: per protocol (PP); for Clinical Cure: 10 days of study drug; for Recurrence: CDI recurrence during 4-wk follow-up
Description: Administration of concomitant antibiotics (CAs) to subjects during the 10 days of study drug administration (PO Fidaxomicin (FDX 200 mg BID)) vs. (PO Vancomycin (Vanc 125 mg QID)) through 4-wk follow-up period was reviewed. End points were the effect of CAs on clinical cure, CDI recurrence during 4-wk follow-up, and global cure (clinical cure with no recurrence).

[1] = in those who received CAs, in words

Row | SMILES | Global Cure (clinical cure with no recurrence) (CA (concomitant antibiotics)) [%] | Clinical Cure (CA (concomitant antibiotics)) [%] | Recurrence (CA (concomitant antibiotics)) [%] | Global Cure (clinical cure with no recurrence) (No CA) [%] | Clinical Cure (No CA) [%] | Recurrence (No CA) [%] | CDI recurrences compared to Vanc [1] | global cures compared to Vanc [1]
1 | CCc1c(Cl)c(O)c(Cl)c(O)c1C(=O)O[C@H]1[C@H](O)[C@H](OC)[C@H](OC/C2=C\C=C\C[C@H](O)/C(C)=C/[C@H](CC)[C@@H](O[C@@H]3OC(C)(C)[C@@H](OC(=O)C(C)C)[C@H](O)[C@@H]3O)/C(C)=C/C(C)=C/C[C@@H]([C@@H](C)O)OC2=O)O[C@@H]1C [FDX, fidaxomicin] | 72 | 87 | 23 | 79 | 93 | 11 | lower | significantly improved
2 | CN[C@H](CC(C)C)C(=O)N[C@H]1C(=O)N[C@@H](CC(N)=O)C(=O)N[C@H]2C(=O)N[C@H]3C(=O)N[C@H](C(=O)N[C@H](C(=O)O)c4cc(O)cc(O)c4-c4cc3ccc4O)[C@H](O)c3ccc(c(Cl)c3)Oc3cc2cc(c3O[C@@H]2O[C@H](CO)[C@@H](O)[C@H](O)[C@H]2O[C@H]2C[C@](C)(N)[C@H](O)[C@H](C)O2)Oc2ccc(cc2Cl)[C@H]1O [Vanc, Vancomycin, reference compound] | 50 | 77 | 40 | 72 | 94 | 18 |  | 
